# PMC5078040 (Oncotarget, 2016)
# pIC50: −log10 of the molar value.
# How the values were obtained:
# PI3Kδ = PI3Kδ (Homo sapiens, UniProt O00329); assay: ADP-glo biochemical assay; settings: purified enzyme, read-out: biochemical IC50 PI3K Delta
# Method: The reaction in each tube was started immediately by adding ATP and kept going for an hour under 37°C. After the tube cooled for 5 minutes at room temperature, 5 μL solvent reactions were carried out in a 384-well plate. Then 5 μL of ADP-Glo™ reagent was added into each well to stop the reaction and consume the remaining ADP within 40 minutes. At the end, 10 μL of kinase detection reagent was added into the well and incubated for 30 minutes to produce a luminescence signal. Luminescence signal was measured with an automated plate reader (Perkin-Elmer Envision) and each measurement was performed in triplicate.
# AAK1 = biological target: T1, AAK1 (Homo sapiens, UniProt Q2M2I8); assay: KinomeScan; type: binding; settings: 1uM
# T1 construct: purchased DiscoveRx KINOMEscan
# ALK = biological target: T2, ALK (Homo sapiens, UniProt Q9UM73); assay: KinomeScan; type: binding; settings: 1uM
# T2 construct: purchased DiscoveRx KINOMEscan
# ASK1 = biological target: T3, ASK1 (Homo sapiens, UniProt Q99683); assay: KinomeScan; type: binding; settings: 1uM
# T3 construct: purchased DiscoveRx KINOMEscan
# AURKB = biological target: T4, AURKB (Homo sapiens, UniProt Q96GD4); assay: KinomeScan; type: binding; settings: 1uM
# T4 construct: purchased DiscoveRx KINOMEscan
# CLK1 = biological target: T5, CLK1 (Homo sapiens, UniProt P49759); assay: KinomeScan; type: binding; settings: 1uM
# T5 construct: purchased DiscoveRx KINOMEscan
# DCAMKL1 = biological target: T6, DCAMKL1 (Homo sapiens, UniProt O15075); assay: KinomeScan; type: binding; settings: 1uM
# T6 construct: purchased DiscoveRx KINOMEscan
# DRAK1 = biological target: T7, DRAK1 (Homo sapiens, UniProt Q9UEE5); assay: KinomeScan; type: binding; settings: 1uM
# T7 construct: purchased DiscoveRx KINOMEscan
# DYRK1B = biological target: T8, DYRK1B (Homo sapiens, UniProt Q9Y463); assay: KinomeScan; type: binding; settings: 1uM
# T8 construct: purchased DiscoveRx KINOMEscan
# [1] = biological target: T9, EGFR(L747-E749del, A750P) (Homo sapiens, UniProt P00533, A750P/DEL747-749); assay: KinomeScan; type: binding; settings: 1uM
# T9 construct: purchased DiscoveRx KINOMEscan
# EGFR(L747-T751del,Sins) = assay: KinomeScan; type: binding; settings: 1uM
# EPHA5 = biological target: T10, EPHA5 (Homo sapiens, UniProt P54756); assay: KinomeScan; type: binding; settings: 1uM
# T10 construct: purchased DiscoveRx KINOMEscan
# FLT1 = biological target: T11, FLT1 (Homo sapiens, UniProt P17948); assay: KinomeScan; type: binding; settings: 1uM
# T11 construct: purchased DiscoveRx KINOMEscan
# FLT3(D835Y) = biological target: T12, FLT3(D835Y) (Homo sapiens, UniProt P36888, D835Y); assay: KinomeScan; type: binding; settings: 1uM
# T12 construct: purchased DiscoveRx KINOMEscan
# FLT3(R834Q) = biological target: T13, FLT3(R834Q) (Homo sapiens, UniProt P36888, R834Q); assay: KinomeScan; type: binding; settings: 1uM
# T13 construct: purchased DiscoveRx KINOMEscan
# FLT3-autoinhibited = biological target: T14, FLT3-autoinhibited (Homo sapiens, UniProt P36888); assay: KinomeScan; type: binding; settings: 1uM
# T14 construct: purchased DiscoveRx KINOMEscan
# HIPK2 = biological target: T15, HIPK2 (Homo sapiens, UniProt Q9H2X6); assay: KinomeScan; type: binding; settings: 1uM
# T15 construct: purchased DiscoveRx KINOMEscan
# IGF1R = biological target: T16, IGF1R (Homo sapiens, UniProt P08069); assay: KinomeScan; type: binding; settings: 1uM
# T16 construct: purchased DiscoveRx KINOMEscan
# IRAK3 = biological target: T17, IRAK3 (Homo sapiens, UniProt Q9Y616); assay: KinomeScan; type: binding; settings: 1uM
# T17 construct: purchased DiscoveRx KINOMEscan
# JNK1 = biological target: T18, JNK1 (Homo sapiens, UniProt P45983); assay: KinomeScan; type: binding; settings: 1uM
# T18 construct: purchased DiscoveRx KINOMEscan
# LATS2 = biological target: T19, LATS2 (Homo sapiens, UniProt Q9NRM7); assay: KinomeScan; type: binding; settings: 1uM
# T19 construct: purchased DiscoveRx KINOMEscan
# LIMK1 = biological target: T20, LIMK1 (Homo sapiens, UniProt P53667); assay: KinomeScan; type: binding; settings: 1uM
# T20 construct: purchased DiscoveRx KINOMEscan
# LZK = biological target: T21, LZK (Homo sapiens, UniProt O43283); assay: KinomeScan; type: binding; settings: 1uM
# T21 construct: purchased DiscoveRx KINOMEscan
# MAP4K2 = biological target: T22, MAP4K2 (Homo sapiens, UniProt Q12851); assay: KinomeScan; type: binding; settings: 1uM
# T22 construct: purchased DiscoveRx KINOMEscan
# MARK4 = biological target: T23, MARK4 (Homo sapiens, UniProt Q96L34); assay: KinomeScan; type: binding; settings: 1uM
# T23 construct: purchased DiscoveRx KINOMEscan
# MEK2 = biological target: T24, MEK2 (Homo sapiens, UniProt P36507); assay: KinomeScan; type: binding; settings: 1uM
# T24 construct: purchased DiscoveRx KINOMEscan
# MET(M1250T) = biological target: T25, MET(M1250T) (Homo sapiens, UniProt P08581, M1250T); assay: KinomeScan; type: binding; settings: 1uM
# T25 construct: purchased DiscoveRx KINOMEscan
# MLK2 = biological target: T26, MLK2 (Homo sapiens, UniProt Q02779); assay: KinomeScan; type: binding; settings: 1uM
# T26 construct: purchased DiscoveRx KINOMEscan
# NDR2 = biological target: T27, NDR2 (Homo sapiens, UniProt Q9Y2H1); assay: KinomeScan; type: binding; settings: 1uM
# T27 construct: purchased DiscoveRx KINOMEscan
# NEK4 = biological target: T28, NEK4 (Homo sapiens, UniProt P51957); assay: KinomeScan; type: binding; settings: 1uM
# T28 construct: purchased DiscoveRx KINOMEscan
# OSR1 = biological target: T29, OSR1 (Homo sapiens, UniProt O95747); assay: KinomeScan; type: binding; settings: 1uM
# T29 construct: purchased DiscoveRx KINOMEscan
# PAK2 = biological target: T30, PAK2 (Homo sapiens, UniProt Q13177); assay: KinomeScan; type: binding; settings: 1uM
# T30 construct: purchased DiscoveRx KINOMEscan
# PHKG2 = biological target: T31, PHKG2 (Homo sapiens, UniProt P15735); assay: KinomeScan; type: binding; settings: 1uM
# T31 construct: purchased DiscoveRx KINOMEscan
# PIK3CA(E545A) = biological target: T32, PIK3CA(E545A) (Homo sapiens, UniProt P42336, E545A); assay: KinomeScan; type: binding; settings: 1uM
# T32 construct: purchased DiscoveRx KINOMEscan
# PIK3CA(H1047Y) = biological target: T33, PIK3CA(H1047Y) (Homo sapiens, UniProt P42336, H1047Y); assay: KinomeScan; type: binding; settings: 1uM
# T33 construct: purchased DiscoveRx KINOMEscan
# PIK3CA(I800L) = biological target: T34, PIK3CA(I800L) (Homo sapiens, UniProt P42336, I800L); assay: KinomeScan; type: binding; settings: 1uM
# T34 construct: purchased DiscoveRx KINOMEscan
# PIK3CG = biological target: T35, PIK3CG (Homo sapiens, UniProt P48736); assay: KinomeScan; type: binding; settings: 1uM
# T35 construct: purchased DiscoveRx KINOMEscan
# PLK4 = biological target: T36, PLK4 (Homo sapiens, UniProt O00444); assay: KinomeScan; type: binding; settings: 1uM
# T36 construct: purchased DiscoveRx KINOMEscan
# PRKCE = biological target: T37, PRKCE (Homo sapiens, UniProt Q02156); assay: KinomeScan; type: binding; settings: 1uM
# T37 construct: purchased DiscoveRx KINOMEscan
# [2] = biological target: T38, RSK4(Kin.Dom.1-N-terminal) (Homo sapiens, UniProt Q9UK32); assay: KinomeScan; type: binding; settings: 1uM
# T38 construct: RSK4(Kin.Dom.1-N-terminal); purchased DiscoveRx KINOMEscan
# SRPK2 = biological target: T39, SRPK2 (Homo sapiens, UniProt P78362); assay: KinomeScan; type: binding; settings: 1uM
# T39 construct: purchased DiscoveRx KINOMEscan
# TRKB = biological target: T40, TRKB (Homo sapiens, UniProt Q16620); assay: KinomeScan; type: binding; settings: 1uM
# T40 construct: purchased DiscoveRx KINOMEscan
# ULK3 = biological target: T41, ULK3 (Homo sapiens, UniProt Q6PHR2); assay: KinomeScan; type: binding; settings: 1uM
# T41 construct: purchased DiscoveRx KINOMEscan
# T11 sequence (P17948 27-1338): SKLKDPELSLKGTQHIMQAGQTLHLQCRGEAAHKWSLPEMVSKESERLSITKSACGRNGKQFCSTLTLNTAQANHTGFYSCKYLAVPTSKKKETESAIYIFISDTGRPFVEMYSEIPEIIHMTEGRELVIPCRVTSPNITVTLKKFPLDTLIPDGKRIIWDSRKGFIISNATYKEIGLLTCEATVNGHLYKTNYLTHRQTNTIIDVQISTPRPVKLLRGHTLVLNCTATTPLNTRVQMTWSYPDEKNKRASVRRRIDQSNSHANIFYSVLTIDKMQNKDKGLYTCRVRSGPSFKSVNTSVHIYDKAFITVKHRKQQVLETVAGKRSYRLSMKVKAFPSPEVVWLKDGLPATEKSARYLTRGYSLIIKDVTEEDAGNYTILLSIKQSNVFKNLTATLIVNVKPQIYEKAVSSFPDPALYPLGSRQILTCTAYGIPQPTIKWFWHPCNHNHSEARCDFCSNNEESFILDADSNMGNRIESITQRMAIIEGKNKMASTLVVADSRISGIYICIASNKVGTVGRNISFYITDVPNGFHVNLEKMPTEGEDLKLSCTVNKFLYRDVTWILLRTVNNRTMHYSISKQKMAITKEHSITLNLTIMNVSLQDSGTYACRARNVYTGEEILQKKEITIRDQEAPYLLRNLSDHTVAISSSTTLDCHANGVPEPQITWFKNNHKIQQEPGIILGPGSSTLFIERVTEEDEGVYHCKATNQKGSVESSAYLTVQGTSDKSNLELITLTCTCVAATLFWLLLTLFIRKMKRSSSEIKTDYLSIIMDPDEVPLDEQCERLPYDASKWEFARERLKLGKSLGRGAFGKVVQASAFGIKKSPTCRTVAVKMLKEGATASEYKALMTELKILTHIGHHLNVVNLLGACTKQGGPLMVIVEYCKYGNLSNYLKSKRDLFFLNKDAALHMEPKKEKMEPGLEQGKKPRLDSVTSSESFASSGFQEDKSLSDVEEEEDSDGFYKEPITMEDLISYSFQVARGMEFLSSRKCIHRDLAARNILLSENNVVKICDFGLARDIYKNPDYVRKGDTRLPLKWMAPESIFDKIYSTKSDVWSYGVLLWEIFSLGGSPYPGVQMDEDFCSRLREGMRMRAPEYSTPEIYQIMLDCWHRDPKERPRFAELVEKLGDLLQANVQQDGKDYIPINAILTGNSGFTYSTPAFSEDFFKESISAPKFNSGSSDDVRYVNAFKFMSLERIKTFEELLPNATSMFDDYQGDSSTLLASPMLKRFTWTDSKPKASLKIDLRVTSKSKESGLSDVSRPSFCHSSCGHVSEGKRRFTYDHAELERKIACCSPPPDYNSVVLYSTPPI
# T6 sequence (O15075 whole entry): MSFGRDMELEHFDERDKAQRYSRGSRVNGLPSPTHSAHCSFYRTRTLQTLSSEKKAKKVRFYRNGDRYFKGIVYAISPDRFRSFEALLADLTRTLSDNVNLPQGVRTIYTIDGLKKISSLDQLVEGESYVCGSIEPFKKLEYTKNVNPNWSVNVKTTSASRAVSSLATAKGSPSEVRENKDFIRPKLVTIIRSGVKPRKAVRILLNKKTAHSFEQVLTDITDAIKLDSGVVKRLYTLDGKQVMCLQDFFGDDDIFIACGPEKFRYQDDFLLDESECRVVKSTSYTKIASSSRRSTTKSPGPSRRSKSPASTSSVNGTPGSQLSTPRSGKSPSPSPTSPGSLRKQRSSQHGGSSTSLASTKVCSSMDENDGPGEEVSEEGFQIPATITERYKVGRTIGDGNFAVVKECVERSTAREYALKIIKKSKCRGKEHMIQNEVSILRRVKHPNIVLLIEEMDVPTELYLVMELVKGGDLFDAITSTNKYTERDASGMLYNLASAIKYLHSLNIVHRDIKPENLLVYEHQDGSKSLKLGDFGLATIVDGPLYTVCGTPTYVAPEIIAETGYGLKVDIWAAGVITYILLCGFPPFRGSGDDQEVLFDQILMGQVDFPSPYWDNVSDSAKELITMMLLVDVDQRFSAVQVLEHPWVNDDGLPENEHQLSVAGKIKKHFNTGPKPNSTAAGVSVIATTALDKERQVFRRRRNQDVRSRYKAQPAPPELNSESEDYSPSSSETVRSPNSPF
# T5 sequence (P49759 whole entry): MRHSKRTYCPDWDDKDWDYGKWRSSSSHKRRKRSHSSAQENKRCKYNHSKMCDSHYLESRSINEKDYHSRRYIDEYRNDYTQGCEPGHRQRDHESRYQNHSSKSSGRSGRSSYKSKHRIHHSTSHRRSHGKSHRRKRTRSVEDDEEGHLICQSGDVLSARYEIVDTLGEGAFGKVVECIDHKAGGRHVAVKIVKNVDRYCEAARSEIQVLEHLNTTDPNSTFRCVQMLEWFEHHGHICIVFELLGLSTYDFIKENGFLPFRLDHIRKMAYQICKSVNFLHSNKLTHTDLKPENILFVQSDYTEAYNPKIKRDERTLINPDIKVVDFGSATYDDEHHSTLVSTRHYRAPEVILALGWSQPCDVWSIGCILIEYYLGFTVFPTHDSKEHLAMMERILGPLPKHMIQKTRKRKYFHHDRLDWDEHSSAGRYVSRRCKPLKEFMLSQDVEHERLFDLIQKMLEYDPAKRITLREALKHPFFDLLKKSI
# T15 sequence (Q9H2X6 whole entry): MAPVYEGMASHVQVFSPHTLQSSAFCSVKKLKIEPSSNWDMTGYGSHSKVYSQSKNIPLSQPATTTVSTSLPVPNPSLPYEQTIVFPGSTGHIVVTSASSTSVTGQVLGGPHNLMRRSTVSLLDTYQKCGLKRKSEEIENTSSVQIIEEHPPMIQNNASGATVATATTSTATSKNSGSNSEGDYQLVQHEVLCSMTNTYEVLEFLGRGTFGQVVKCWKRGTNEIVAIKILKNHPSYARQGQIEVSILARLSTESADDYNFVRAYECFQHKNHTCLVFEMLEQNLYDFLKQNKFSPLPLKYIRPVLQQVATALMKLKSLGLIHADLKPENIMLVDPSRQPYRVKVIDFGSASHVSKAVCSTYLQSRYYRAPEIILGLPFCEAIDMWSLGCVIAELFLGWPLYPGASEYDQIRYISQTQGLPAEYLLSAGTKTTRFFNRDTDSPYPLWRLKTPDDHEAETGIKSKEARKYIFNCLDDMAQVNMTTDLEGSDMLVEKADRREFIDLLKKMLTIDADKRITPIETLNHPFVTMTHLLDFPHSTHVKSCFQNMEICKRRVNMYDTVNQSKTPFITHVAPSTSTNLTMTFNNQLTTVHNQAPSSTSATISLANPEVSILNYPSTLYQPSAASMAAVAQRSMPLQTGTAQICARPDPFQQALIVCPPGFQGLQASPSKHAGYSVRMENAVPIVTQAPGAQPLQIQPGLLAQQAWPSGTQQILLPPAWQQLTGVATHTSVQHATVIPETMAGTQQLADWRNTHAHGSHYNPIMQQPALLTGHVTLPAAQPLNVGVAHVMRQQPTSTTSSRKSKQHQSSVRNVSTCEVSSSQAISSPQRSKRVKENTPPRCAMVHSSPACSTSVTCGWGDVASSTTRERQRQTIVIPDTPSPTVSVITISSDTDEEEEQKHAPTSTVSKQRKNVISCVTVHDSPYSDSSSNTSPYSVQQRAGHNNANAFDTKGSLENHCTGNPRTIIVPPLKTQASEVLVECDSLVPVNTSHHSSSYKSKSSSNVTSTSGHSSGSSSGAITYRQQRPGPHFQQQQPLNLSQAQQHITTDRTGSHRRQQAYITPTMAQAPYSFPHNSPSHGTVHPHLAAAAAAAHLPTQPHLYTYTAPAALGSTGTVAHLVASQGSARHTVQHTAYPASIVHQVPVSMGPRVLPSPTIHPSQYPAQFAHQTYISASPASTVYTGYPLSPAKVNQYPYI
# T19 sequence (Q9NRM7 whole entry): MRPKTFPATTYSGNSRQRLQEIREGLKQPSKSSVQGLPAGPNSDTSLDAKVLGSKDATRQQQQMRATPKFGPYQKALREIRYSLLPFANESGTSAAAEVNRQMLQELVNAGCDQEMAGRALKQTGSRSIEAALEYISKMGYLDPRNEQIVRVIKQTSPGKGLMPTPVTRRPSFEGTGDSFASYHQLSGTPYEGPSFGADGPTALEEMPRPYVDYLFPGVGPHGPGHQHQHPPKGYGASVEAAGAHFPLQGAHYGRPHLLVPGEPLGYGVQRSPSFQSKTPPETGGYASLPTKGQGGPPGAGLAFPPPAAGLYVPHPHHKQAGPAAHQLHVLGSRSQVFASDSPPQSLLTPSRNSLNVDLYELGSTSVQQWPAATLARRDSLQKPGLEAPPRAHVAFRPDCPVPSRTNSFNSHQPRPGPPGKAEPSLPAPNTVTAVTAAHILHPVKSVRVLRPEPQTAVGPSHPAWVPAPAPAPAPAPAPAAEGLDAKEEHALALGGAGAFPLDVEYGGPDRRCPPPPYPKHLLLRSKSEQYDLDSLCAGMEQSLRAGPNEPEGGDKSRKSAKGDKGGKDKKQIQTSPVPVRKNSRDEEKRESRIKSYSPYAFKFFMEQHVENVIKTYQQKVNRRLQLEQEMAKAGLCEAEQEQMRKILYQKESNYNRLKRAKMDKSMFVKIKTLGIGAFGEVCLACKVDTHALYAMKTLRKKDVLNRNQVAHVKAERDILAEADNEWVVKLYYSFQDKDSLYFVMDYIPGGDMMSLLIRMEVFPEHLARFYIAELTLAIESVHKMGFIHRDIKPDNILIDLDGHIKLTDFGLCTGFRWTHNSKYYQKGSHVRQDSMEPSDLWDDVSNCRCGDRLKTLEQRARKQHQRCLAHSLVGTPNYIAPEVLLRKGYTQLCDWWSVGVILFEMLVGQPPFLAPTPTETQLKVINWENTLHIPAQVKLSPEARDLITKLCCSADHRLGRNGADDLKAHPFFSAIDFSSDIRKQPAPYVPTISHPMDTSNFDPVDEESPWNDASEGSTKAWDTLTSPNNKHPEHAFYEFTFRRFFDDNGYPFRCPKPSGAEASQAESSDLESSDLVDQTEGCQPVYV
compound,measurement,setting,value
Cc1nc(NC(=O)[C@@H](N)C(C)C)sc1-c1cnc(Cl)c(NS(=O)(=O)c2ccccc2)c1 [PI3KD-IN-015],pIC50,PI3Kδ,8.30
same,KinomeScan AAK1,AAK1,100
same,KinomeScan ALK,ALK,100
same,KinomeScan ASK1,ASK1,88
same,KinomeScan AURKB,AURKB,100
same,KinomeScan CLK1,CLK1,100
same,KinomeScan DCAMKL1,DCAMKL1,61
same,KinomeScan DRAK1,DRAK1,91
same,KinomeScan DYRK1B,DYRK1B,100
same,"KinomeScan EGFR(L747-E749del, A750P)",[1],100
same,"KinomeScan EGFR(L747-T751del,Sins)","EGFR(L747-T751del,Sins)",100
same,KinomeScan EPHA5,EPHA5,100
same,KinomeScan FLT1,FLT1,89
same,KinomeScan FLT3(D835Y),FLT3(D835Y),98
same,KinomeScan FLT3(R834Q),FLT3(R834Q),84
same,KinomeScan FLT3-autoinhibited,FLT3-autoinhibited,100
same,KinomeScan HIPK2,HIPK2,100
same,KinomeScan IGF1R,IGF1R,100
same,KinomeScan IRAK3,IRAK3,100
same,KinomeScan JNK1,JNK1,100
same,KinomeScan LATS2,LATS2,100
same,KinomeScan LIMK1,LIMK1,100
same,KinomeScan LZK,LZK,92
same,KinomeScan MAP4K2,MAP4K2,91
same,KinomeScan MARK4,MARK4,100
same,KinomeScan MEK2,MEK2,94
same,KinomeScan MET(M1250T),MET(M1250T),74
same,KinomeScan MLK2,MLK2,89
same,KinomeScan NDR2,NDR2,100
same,KinomeScan NEK4,NEK4,98
same,KinomeScan OSR1,OSR1,75
same,KinomeScan PAK2,PAK2,89
same,KinomeScan PHKG2,PHKG2,91
same,KinomeScan PIK3CA(E545A),PIK3CA(E545A),5.2
same,KinomeScan PIK3CA(H1047Y),PIK3CA(H1047Y),4.4
same,KinomeScan PIK3CA(I800L),PIK3CA(I800L),0.5
same,KinomeScan PIK3CG,PIK3CG,0.05
same,KinomeScan PLK4,PLK4,99
same,KinomeScan PRKCE,PRKCE,100
same,KinomeScan RSK4(Kin.Dom.1-N-terminal),[2],100
same,KinomeScan SRPK2,SRPK2,100
same,KinomeScan TRKB,TRKB,100
same,KinomeScan ULK3,ULK3,88
